The values that follow come from US20230285346A1, “METHODS OF USING FTO INHIBITORS FOR THE TREATMENT OF PULMONARY HYPERTENSION” (Ann and Robert H. Lurie Children's Hospital of Chicago, priority 2022, published 2023).

For one test, the system named is MCT-induced PH in rats. In words: monocrotaline (MCT)-induced rat PH model. It is filed as in vivo, Sprague Dawley (SD) rats. Here is the method:
FIGS. 15A, 15B, 15C, 15D, and 15E. […] (A) FB-23-2 chemical structure. (B) Hemodynamic measurement showing decreased RVSP in FB23-2-treated MCT rats. (C) FB23-2 treatment attenuated RV hypertrophy. (D) Representative micrographs of pentachrome staining showing a markedly thickened vessel in Vehicle-treated MCT rats whereas normalized thickness of vessel walls in FB23-2-treated rats. At 2 weeks post-MCT challenge, the rats were treated with either PBS or FB23-2 (3 mg/kg, i.p. twice a day) for 2 weeks. V=vessel, Br=Bronchiole. Scale bar, 20 μm. […] Student's t test.
FIGS. 17A, 17B, and 17C. Decreased RVSP and RV hypertrophy in Meclofenamate-treated MCT rats. (A) representative tracings of RVSP measurement. Mec=Meclofenamate. […] (C) Reduced RV hypertrophy in Meclofenamate-treated MCT rats. CTL, control rats without MCT treatment. *P<0.05; **P<0.01. One-way ANOVA.
FIGS. 18A and 18B. Inhibited pulmonary vascular remodeling in Meclofenamate-treated MCT rats. (A) Representative micrographs of pentachrome staining showing a markedly thickened vessel in PBS-treated MCT rats whereas normalized thickness of vessel walls in Meclofenamate-treated rats. At 2 weeks post-MCT challenge, the rats were treated with either PBS or Meclofenamate for 2 weeks. V=vessel, Br=Bronchiole. Scale bar, 20 μm. (B). Quantification of pulmonary artery (PA) wall thickness. CTL=control rats without MCT treatment. *P<0.05. One-way ANOVA.
FIGS. 19A and 19B. Improved right heart contractility and pulmonary arterial function in Meclofenamate-treated MCT rats. At 2 weeks post-MCT, the rats were treated with either PBS or Meclofenamate for 2 weeks and then subject to echocardiography for assessment of right heart contractility determined by RV fraction area changes (RV FAC) (A), and of pulmonary arterial function by PA acceleration time/ejection time ratio (PA AT/ET) (B). ** P<0.01. Student t test.
Inhibited Arginase expression in lung ECs of Fto^Tie2Cre mice following chronic hypoxia. To identify potential FTO targets in lung ECs, RNA was isolated from lung ECs of WT mice and Fto^Tie2Cre mice at normoxia, 3 days, and 21 days hypoxia for RNA sequencing analysis. Arg1 is one of the top 10 genes induced in hypoxic WT mice but not in hypoxic Fto^Tie2Cre mice. […] It has been shown that substrate L-Arginine levels inversely correlate to PA pressure in patients (19). […] Increased Arginase expression and activity in lung ECs leads to reduced substrate L-Arginine for nitric oxide (NO) synthesis by eNOS and thus impairs NO production (21, 22). Low NO levels affect vasotone and smooth muscle cell growth. […] FTO deficiency reduces the stability of ARG2 mRNA in human PAECs. To determine whether ARG2 (the major isoform in human ECs) is a target of FTO in human PAECs, a stability assay was carried out and the effect of FTO on the decay of ARG2 mRNA was assessed. FTO-silenced and control PAECs were treated with 5 μg/mL actinomycin D to stop the new transcriptional process. Total RNA was then isolated at 0, 3, 6 h post-actinomycin D treatment and quantified by QRT-PCR analysis. The relative ARG2 level was calculated and normalized to β-actin and the ARG2 mRNA half-life time (t1/2) was estimated according to the linear regression analysis (9). […] Increased m^6A demethylase activity and FTO expression in PAECs from IPAH patients compared to donor ECs and FTO-dependent upregulation of ARG2 expression in PAECs of IPAH patients. […] Furthermore, methylated RNA immunoprecipitation (MeRIP)-QRT-PCR analysis confirmed a marked decrease of m^6A ARG2 in IPAH ECs compared to normal ECs from unused donors (FIG. 10). • 7. SMC-specific Fto deletion inhibits hypoxia-induced PH in mice. To determine whether FTO is essential for medial thickening and muscularization of distal pulmonary vessels and development of PAH, novel tamoxifen-inducible Fto^iΔSMC mice were generated by breeding Fto-floxed mice into the genetic background of Myh11-CreER^T2 mice. […]

In a further test the target is FTO (Homo sapiens, UniProt Q9C0B1). The following applies: FTO versus ALKBH5; cited from earlier work.
Chain of FTO (Q9C0B1 whole entry): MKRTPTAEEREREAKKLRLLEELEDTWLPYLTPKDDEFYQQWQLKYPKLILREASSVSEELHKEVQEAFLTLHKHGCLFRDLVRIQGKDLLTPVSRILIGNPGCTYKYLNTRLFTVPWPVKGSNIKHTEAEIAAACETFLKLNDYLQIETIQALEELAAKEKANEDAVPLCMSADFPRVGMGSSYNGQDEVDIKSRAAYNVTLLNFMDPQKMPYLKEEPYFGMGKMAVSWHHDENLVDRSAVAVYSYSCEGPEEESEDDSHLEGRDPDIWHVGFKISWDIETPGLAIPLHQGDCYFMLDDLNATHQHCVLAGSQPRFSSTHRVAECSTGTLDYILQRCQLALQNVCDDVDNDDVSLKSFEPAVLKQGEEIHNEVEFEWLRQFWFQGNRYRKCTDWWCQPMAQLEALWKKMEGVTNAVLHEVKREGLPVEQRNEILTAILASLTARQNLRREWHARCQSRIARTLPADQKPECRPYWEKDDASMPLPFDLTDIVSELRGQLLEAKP
The mark [1] stands for this setting: FB23-2 3 mg/kg, i.p. twice a day for 2 weeks, vs vehicle-treated MCT rats.

`Cc1noc(C)c1-c1cc(Cl)c(Nc2ccccc2C(=O)NO)c(Cl)c1` [FB23-2]: the “MCT-induced RVSP increase” value in the test with MCT-induced PH in rats (FB23-2 3 mg/kg, i.p. twice a day for 2 weeks from 2 weeks post-MCT, measured 4 weeks post-MCT, vs vehicle) was “markedly reduced”. Moreover, in the test with MCT-induced PH in rats (FB23-2 3 mg/kg, i.p. twice a day for 2 weeks from 2 weeks post-MCT, vs vehicle), the “RV hypertrophy determined by RV/LV+septum ratio” value was “markedly reduced”. Further, in the test on MCT-induced PH in rats (setting [1]), the “pulmonary arterial function (echocardiography, PA AT/ET)” value is on record as “improved pulmonary arterial function” and the “pulmonary vascular remodeling (vessel wall thickness, pentachrome staining)” value is recorded as “reduced pulmonary vascular remodeling”.

As to `Cc1ccc(Cl)c(Nc2ccccc2C(=O)O)c1Cl` [Meclofenamate sodium], in the test with MCT-induced PH in rats (Meclofenamate 10 mg/kg, p.o., twice a day for 2 weeks from 2 weeks post-MCT, vs PBS-treated MCT rats), the RVSP result is “drastically decreased”. Moreover, the “MCT-induced RV hypertrophy” value in the test with MCT-induced PH in rats (Meclofenamate 10 mg/kg, p.o., twice a day for 2 weeks, vs PBS-treated MCT rats) was “markedly reduced”. Further, the “PA wall thickness (pentachrome staining; pulmonary vascular remodeling)” value with MCT-induced PH in rats (Meclofenamate 10 mg/kg, p.o., twice a day for 2 weeks, vs untreated MCT-rats) is “markedly reduced”. In addition, the “right heart contractility, RV fraction area changes (RV FAC), echocardiography” value with MCT-induced PH in rats (Meclofenamate for 2 weeks from 2 weeks post-MCT, decrease seen in PBS-treated MCT rats) is “reversed”. The “ratio of PA acceleration time/ejection time (PA AT/ET)” value in the test on MCT-induced PH in rats (Meclofenamate for 2 weeks from 2 weeks post-MCT, vs PBS-treated MCT rats) is on record as “marked increase”. In addition, on FTO, the “selectivity of FTO inhibition” value is given as “selective over ALKBH5”.
